As a reminder, the Kd is the free concentration of one partner at which half of the binding sites on the other are occupied at equilibrium, for simple one-to-one binding. By IC50 is commonly meant the midpoint of a concentration-inhibition curve. A low value points to inhibition by little substance.

One assay has as its target T1, TRKB (Homo sapiens, UniProt Q16620).
T1 construct: purchased DiscoveRx
Nature of the assay: KINOMEscan binding constant, TRKB. The note with it: read-out: Binding affinity (Kd, nM) TRKB.

Another assay addresses T2, DDR2 (Homo sapiens, UniProt Q16832).
T2 sequence (Q16832 22-855): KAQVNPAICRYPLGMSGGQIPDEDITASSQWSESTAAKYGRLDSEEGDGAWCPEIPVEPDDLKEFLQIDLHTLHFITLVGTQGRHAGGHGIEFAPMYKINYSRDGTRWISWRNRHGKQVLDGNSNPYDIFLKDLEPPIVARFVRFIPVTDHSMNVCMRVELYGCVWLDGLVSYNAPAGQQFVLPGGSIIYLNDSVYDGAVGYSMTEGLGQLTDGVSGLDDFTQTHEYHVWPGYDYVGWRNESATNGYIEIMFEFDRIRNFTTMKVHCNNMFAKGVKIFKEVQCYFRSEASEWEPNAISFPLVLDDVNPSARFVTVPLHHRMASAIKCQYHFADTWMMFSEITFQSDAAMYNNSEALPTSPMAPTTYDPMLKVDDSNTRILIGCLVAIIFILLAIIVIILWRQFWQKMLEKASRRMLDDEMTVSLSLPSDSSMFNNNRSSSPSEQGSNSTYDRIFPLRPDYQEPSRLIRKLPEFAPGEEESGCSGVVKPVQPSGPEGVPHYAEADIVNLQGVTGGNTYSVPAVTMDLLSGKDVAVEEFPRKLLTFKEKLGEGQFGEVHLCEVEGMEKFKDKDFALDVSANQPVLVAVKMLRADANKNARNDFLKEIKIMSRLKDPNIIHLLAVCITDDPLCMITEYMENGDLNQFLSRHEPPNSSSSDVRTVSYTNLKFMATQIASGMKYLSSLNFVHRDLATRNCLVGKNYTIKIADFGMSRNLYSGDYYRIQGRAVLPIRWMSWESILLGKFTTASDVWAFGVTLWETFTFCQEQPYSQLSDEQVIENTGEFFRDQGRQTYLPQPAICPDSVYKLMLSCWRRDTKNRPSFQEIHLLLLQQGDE
Kind of assay: LANCE ULTRA kinase assay, DDR2. The assay is classed as biochemical. For orientation: TR-FRET usually uses a lanthanide donor and a delayed reading to cut background.

Another assay concerns the target DDR1 (Homo sapiens, UniProt Q08345).

Sequence of DDR1 (Q08345 19-913): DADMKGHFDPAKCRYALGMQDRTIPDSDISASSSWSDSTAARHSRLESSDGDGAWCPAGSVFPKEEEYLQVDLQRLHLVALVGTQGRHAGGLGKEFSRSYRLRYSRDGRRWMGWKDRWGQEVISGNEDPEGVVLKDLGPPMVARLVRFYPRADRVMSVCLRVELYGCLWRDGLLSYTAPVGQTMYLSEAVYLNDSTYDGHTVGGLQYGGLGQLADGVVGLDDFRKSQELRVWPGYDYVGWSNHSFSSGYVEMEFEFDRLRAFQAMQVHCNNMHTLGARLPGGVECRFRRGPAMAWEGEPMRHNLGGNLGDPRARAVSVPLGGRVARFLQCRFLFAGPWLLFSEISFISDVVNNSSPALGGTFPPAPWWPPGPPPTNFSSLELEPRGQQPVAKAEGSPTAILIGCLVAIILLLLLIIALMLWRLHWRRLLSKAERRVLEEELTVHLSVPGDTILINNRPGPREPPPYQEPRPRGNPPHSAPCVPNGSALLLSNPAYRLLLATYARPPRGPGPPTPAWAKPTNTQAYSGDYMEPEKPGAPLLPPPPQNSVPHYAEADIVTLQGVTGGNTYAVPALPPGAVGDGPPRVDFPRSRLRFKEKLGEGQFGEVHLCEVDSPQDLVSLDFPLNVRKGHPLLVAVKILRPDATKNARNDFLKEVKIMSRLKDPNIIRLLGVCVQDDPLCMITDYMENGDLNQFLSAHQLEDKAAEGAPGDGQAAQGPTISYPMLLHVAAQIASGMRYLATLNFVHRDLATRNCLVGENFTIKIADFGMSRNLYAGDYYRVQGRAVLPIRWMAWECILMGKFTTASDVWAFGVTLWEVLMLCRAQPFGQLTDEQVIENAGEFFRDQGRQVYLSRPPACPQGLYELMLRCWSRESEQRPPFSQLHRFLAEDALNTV
T1 sequence (Q16620 32-822): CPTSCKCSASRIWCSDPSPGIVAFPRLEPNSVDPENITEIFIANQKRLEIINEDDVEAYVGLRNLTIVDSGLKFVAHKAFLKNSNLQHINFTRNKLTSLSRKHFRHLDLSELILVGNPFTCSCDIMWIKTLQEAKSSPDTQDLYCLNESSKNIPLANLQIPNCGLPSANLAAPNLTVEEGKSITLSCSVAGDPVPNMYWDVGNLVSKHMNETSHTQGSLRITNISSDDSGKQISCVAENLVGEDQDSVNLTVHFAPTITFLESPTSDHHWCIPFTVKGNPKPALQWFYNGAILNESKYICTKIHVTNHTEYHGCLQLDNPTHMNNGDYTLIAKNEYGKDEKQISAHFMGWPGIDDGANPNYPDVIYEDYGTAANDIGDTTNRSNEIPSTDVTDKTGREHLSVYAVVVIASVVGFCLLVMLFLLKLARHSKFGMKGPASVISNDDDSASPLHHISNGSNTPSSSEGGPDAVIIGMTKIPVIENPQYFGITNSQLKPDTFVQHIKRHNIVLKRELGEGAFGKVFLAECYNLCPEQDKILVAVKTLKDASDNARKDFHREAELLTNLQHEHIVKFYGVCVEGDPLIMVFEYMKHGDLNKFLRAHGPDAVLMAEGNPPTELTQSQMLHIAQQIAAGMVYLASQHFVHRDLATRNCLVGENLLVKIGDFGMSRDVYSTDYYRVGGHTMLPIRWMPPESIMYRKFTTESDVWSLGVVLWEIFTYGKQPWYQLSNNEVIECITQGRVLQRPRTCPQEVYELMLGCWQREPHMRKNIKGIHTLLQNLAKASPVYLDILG

In the case of `C[C@H]1CN(c2cncnc2)Cc2cc(C(=O)Nc3cc(CN4CCN(C)CC4)cc(C(F)(F)F)c3)ccc21` [Compound 6b], the Kd at TRKB turned out to be 5.2 ± 1 nM.

On to `CC[C@@H]1CN(c2cncnc2)Cc2cc(C(=O)Nc3cc(CN4CCN(C)CC4)cc(C(F)(F)F)c3)ccc21` [Compound 6e], for which, on DDR2, the IC50 is greater than 10 µM. For the same compound, the Kd at TRKB amounted to 500 ± 30 nM.

Regarding `CN1CCN(Cc2cc(NC(=O)c3ccc4c(c3)CN(c3cccnc3)CC4)cc(C(F)(F)F)c2)CC1` [Compound 6h], on DDR2, the IC50 was greater than 4 µM. At TRKB, the Kd stood at 94 ± 6 nM.

On DDR2, `CC(C)[C@H]1CN(c2cncnc2)Cc2cc(C(=O)Nc3cc(CN4CCN(C)CC4)cc(C(F)(F)F)c3)ccc21` [Compound 6f] displayed an IC50 greater than 10 µM. At TRKB, the Kd is 340 ± 5 nM. Further, the “DDR1 inhibition, result in words” value at DDR1 is “substantial potency loss”.

As to `C[C@@H]1CN(c2cncnc2)Cc2cc(C(=O)Nc3cc(CN4CCN(C)CC4)cc(C(F)(F)F)c3)ccc21` [Compound 6c], the Kd at TRKB came out at 36 ± 2.5 nM.

The compound `CC(C)[C@@H]1CN(c2cncnc2)Cc2cc(C(=O)Nc3cc(CN4CCN(C)CC4)cc(C(F)(F)F)c3)ccc21` [Compound 6g] came in with an IC50 on DDR2 greater than 10 µM. For the same compound, at TRKB, the equilibrium dissociation constant (Kd) is greater than 1000 nM. Moreover, the “DDR1 inhibition, result in words” value at DDR1 was “almost no DDR1 inhibition”.

In turn, `CN1CCN(Cc2cc(NC(=O)c3ccc4c(c3)CN(c3cncnc3)CC4)cc(C(F)(F)F)c2)CC1` [Compound 6a] gave an IC50 on DDR2 greater than 7.9 µM. Besides, the Kd on TRKB was 29 ± 5.5 nM.

Consider `CN1CCN(Cc2cc(NC(=O)c3ccc4c(c3)CN(c3ccccc3)CC4)cc(C(F)(F)F)c2)CC1` [Compound 6i], for which, on DDR2, the IC50 is greater than 10 µM. Also, at TRKB, the Kd is greater than 1000 nM. Further, the “DDR1 inhibition, result in words” value at DDR1 is “totally abolished DDR1 inhibitory potency”.

At DDR2, `CC[C@H]1CN(c2cncnc2)Cc2cc(C(=O)Nc3cc(CN4CCN(C)CC4)cc(C(F)(F)F)c3)ccc21` [Compound 6d] registered a concentration for half-maximal inhibition (IC50) of 0.546 ± 0.049 µM. For the same compound, the Kd on TRKB stood at 22 ± 1 nM.

The values are drawn from article PMC5053573, “Structure-Based Design of Tetrahydroisoquinoline-7-carboxamides as Selective Discoidin Domain Receptor 1 (DDR1) Inhibitors” (Journal of Medicinal Chemistry, 2016).
